Results reported in paper PMC11754895 (Nature Communications, 2025).

Molecular target: T1, OleTKM (Kocuria marina, UniProt A0A0B0D9P4)
T1 sequence (A0A0B0D9P4 1-428): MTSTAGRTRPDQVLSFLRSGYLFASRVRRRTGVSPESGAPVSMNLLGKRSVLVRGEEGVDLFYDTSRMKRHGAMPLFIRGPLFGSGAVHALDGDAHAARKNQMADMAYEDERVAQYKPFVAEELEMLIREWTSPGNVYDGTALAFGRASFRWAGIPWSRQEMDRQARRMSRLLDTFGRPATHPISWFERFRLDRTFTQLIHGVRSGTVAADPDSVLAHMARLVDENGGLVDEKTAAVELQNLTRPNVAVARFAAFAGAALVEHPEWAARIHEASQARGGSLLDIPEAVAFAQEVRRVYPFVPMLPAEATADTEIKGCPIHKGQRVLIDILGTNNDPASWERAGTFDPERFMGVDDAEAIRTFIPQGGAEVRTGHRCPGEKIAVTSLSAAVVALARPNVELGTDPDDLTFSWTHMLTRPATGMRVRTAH
Assay: inhibition of myristic acid turnover
Type: biochemical
Conditions: even mixture of C14:0 and C18:1; competitive

For `CCCCCCCC/C=C\CCCCCCCC(=O)O` [oleic acid], the “inhibition of myristic acid turnover” value was “presence of oleic acid impaired the activity of OleTKM against myristic acid (Fig. 1d)”.
